Results on two compounds are retold here after ChEMBL document CHEMBL6109124, “Identification of effective anti-osteosarcoma agents via screening of an in-house NQO1-targeted compound library” (Bioorg Med Chem, 2025).

Each structure is given as a SMILES string.

Data set [1] has as its system HOS-TE85. The data set is described as follows: Cytotoxicity against human MNNG cells assessed as cell growth inhibition at 1 uM measured after 72 hrs by MTT assay relative to control. In kind it is functional. The settings on record: read-out: GI.
In data set [2] the test system is HOS-TE85. The data set can be described thus: Cytotoxicity against human MNNG cells assessed as cell growth inhibition at 10 uM measured after 72 hrs by MTT assay relative to control. In kind it is functional. To be noted: read-out: GI.
Data set [3] relates to HOS-TE85. The data set can be described thus: Cytotoxicity against human MNNG cells assessed as cell growth inhibition measured after 72 hrs by MTT assay. In kind it is functional, cell-based. The settings on record: HOS-TE85, 72 h.
Data set [4] can be described thus: Cytotoxicity against HUVEC assessed as cell growth inhibition measured after 72 hrs by MTT assay. It counts as toxicity, cell-based. To be noted: human, HUVEC cells.
The nature of data set [5]: Selectivity index, ratio of IC50 for cytotoxicity against HUVEC to IC50 for cytotoxicity against human MNNG cells. The settings on record: HUVEC and human MNNG cells, read-out: Ratio IC50. It counts as toxicity, cell-based.

With `N#Cc1nc2c(nc1C#N)-c1cc(F)c(F)cc1/C2=N\NC1CCCCC1`, the inhibition of growth at 1 µM in the data set with HOS-TE85 [1] is 31.2%. Further, the inhibition of growth at 10 µM in the data set on HOS-TE85 [2] amounted to 90.4%. The IC50 with HOS-TE85 [3] was determined as 2.22 µM. For the same compound, the IC50 at 72 h in data set [4] amounted to 17.2 µM. Also, in data set [5], the selectivity ratio came to 7.73.
For `Cc1ccc2c(c1)-c1nc(C#N)c(C#N)nc1C2=O`, the inhibition of growth at 1 µM with HOS-TE85 [1] worked out at 35.4%. In the data set on HOS-TE85 [2], the inhibition of growth at 10 µM stood at 99.9%. Further, the IC50 in the data set on HOS-TE85 [3] came to 1.85 µM. In addition, in data set [4], the IC50 at 72 h was 3.85 µM. The selectivity ratio in data set [5] was 2.08.
